According to US6562756B1, “Herbicidal compositions” (Nissan Chemical Industries, Ltd., priority 1999, dated 2003):

Experiments:
Assay type in all cases: in vivo
maize = experiment: Test on phytotoxicity to maize sown at a shallow sowing depth (soil treatment, pot test); settings: for Fresh weight ratio with respect to untreated plants: maize sown at 1 cm depth, 17 days after application; for phytotoxicities to maize sown at a shallow sowing depth caused by Compound (A1), (A2), (A3) or (A4): effect of the safener: summary in words of Table 1
Method: Cylindrical pots having an inner diameter of about 11 cm and a depth of 10 cm were charged with sterilized upland soil. In each pot, three seeds of maize were separately seeded at a sowing depth of 1 cm. On the day of seeding, wettable powder appropriately formulated according to the above Formulation Examples was diluted with water and then applied with a small type sprayer at a spray volume of 10 liter/are. Seventeen days after the application, the fresh weight of aerial parts of each plant was determined and then compared with those of untreated plants.

[1] = test system: velvetleaf (Abutilon theophrasti); experiment: Test on herbicidal effects by soil treatment: velvetleaf; settings: four weeks after application
Method: (§1) Plastic cases having a size of 30 cm (length), 30 cm (width) and 10 cm (depth) were charged with sterilized upland soil. In each plastic case, seeds of velvetleaf (Abutilon theophrasti), common lambsquarters (Chenopodium album), redroot pigweed (Amaranthus viridis) and common ragweed (Ambrosia artemisiaefolia) were seeded, and covered with soil of 0.5 cm thickness. On the day of seeding, wettable powder appropriately formulated according to the above Formulation Examples was diluted with water and then applied with a small type sprayer at a spray volume of 10 liter/are. Four weeks after the application, the fresh weight of aerial parts of each weed was determined and then compared with those of untreated weed.

[2] = test system: common lambsquarters (Chenopodium album); experiment: Test on herbicidal effects by soil treatment: common lambsquarters; settings: four weeks after application
Method: as §1

[3] = test system: redroot pigweed (Amaranthus viridis); experiment: Test on herbicidal effects by soil treatment: redroot pigweed; settings: four weeks after application
Method: as §1

[4] = test system: common ragweed (Ambrosia artemisiaefolia); experiment: Test on herbicidal effects by soil treatment: common ragweed; settings: four weeks after application
Method: as §1

weeds = experiment: Test on herbicidal effects by soil treatment: summary over the weeds; settings: summary in words of Table 2
Method: as §1

Compound: CCS(=O)(=O)Nc1cc(-n2c(=O)cc(C(F)(F)F)n(C)c2=O)c(F)cc1Cl [Compound (A1)]
- Fresh weight ratio with respect to untreated plants (maize; 40 g/ha): 70%
- Fresh weight ratio with respect to untreated plants (maize; 80 g/ha): 55%
- Fresh weight ratio with respect to untreated weeds, A.th ([1]; 5 g/ha): 26%
- Fresh weight ratio with respect to untreated weeds, A.th ([1]; 10 g/ha): 2%
- Fresh weight ratio with respect to untreated weeds, C.al ([2]; 5 g/ha): 13%
- Fresh weight ratio with respect to untreated weeds, C.al ([2]; 10 g/ha): 0%
- Fresh weight ratio with respect to untreated weeds, A.vi ([3]; 5 g/ha): 5%
- Fresh weight ratio with respect to untreated weeds, A.vi ([3]; 10 g/ha): 0%
- Fresh weight ratio with respect to untreated weeds, A.ar ([4]; 5 g/ha): 31%
- Fresh weight ratio with respect to untreated weeds, A.ar ([4]; 10 g/ha): 7%
- herbicidal activities in the presence of Compound (B), (C), (D) or (E) (weeds): not decreased

Compound: Cn1c(C(F)(F)F)cc(=O)n(-c2cc(NS(C)(=O)=O)c(C#N)cc2F)c1=O [Compound (A2)]
- Fresh weight ratio with respect to untreated plants (maize; 40 g/ha): 90%
- Fresh weight ratio with respect to untreated plants (maize; 80 g/ha): 76%
- Fresh weight ratio with respect to untreated weeds, A.th ([1]; 5 g/ha): 32%
- Fresh weight ratio with respect to untreated weeds, A.th ([1]; 10 g/ha): 4%
- Fresh weight ratio with respect to untreated weeds, C.al ([2]; 5 g/ha): 18%
- Fresh weight ratio with respect to untreated weeds, C.al ([2]; 10 g/ha): 0%
- Fresh weight ratio with respect to untreated weeds, A.vi ([3]; 5 g/ha): 9%
- Fresh weight ratio with respect to untreated weeds, A.vi ([3]; 10 g/ha): 0%
- Fresh weight ratio with respect to untreated weeds, A.ar ([4]; 5 g/ha): 40%
- Fresh weight ratio with respect to untreated weeds, A.ar ([4]; 10 g/ha): 10%
- herbicidal activities in the presence of Compound (B), (C), (D) or (E) (weeds): not decreased

Compound: CCS(=O)(=O)N(C(=O)C(C)(C)C)c1cc(-n2c(=O)cc(C(F)(F)F)n(C)c2=O)c(F)cc1C#N [Compound (A3)]
- Fresh weight ratio with respect to untreated plants (maize; 40 g/ha): 84%
- Fresh weight ratio with respect to untreated plants (maize; 80 g/ha): 60%
- Fresh weight ratio with respect to untreated weeds, A.th ([1]; 5 g/ha): 24%
- Fresh weight ratio with respect to untreated weeds, A.th ([1]; 10 g/ha): 1%
- Fresh weight ratio with respect to untreated weeds, C.al ([2]; 5 g/ha): 15%
- Fresh weight ratio with respect to untreated weeds, C.al ([2]; 10 g/ha): 0%
- Fresh weight ratio with respect to untreated weeds, A.vi ([3]; 5 g/ha): 6%
- Fresh weight ratio with respect to untreated weeds, A.vi ([3]; 10 g/ha): 0%
- Fresh weight ratio with respect to untreated weeds, A.ar ([4]; 5 g/ha): 37%
- Fresh weight ratio with respect to untreated weeds, A.ar ([4]; 10 g/ha): 11%
- herbicidal activities in the presence of Compound (B), (C), (D) or (E) (weeds): not decreased

Compound: CCS(=O)(=O)N(C(=O)c1ccc(OC)cc1)c1cc(-n2c(=O)cc(C(F)(F)F)n(C)c2=O)c(F)cc1Cl [Compound (A4)]
- Fresh weight ratio with respect to untreated plants (maize; 40 g/ha): 73%
- Fresh weight ratio with respect to untreated plants (maize; 80 g/ha): 57%
- Fresh weight ratio with respect to untreated weeds, A.th ([1]; 5 g/ha): 27%
- Fresh weight ratio with respect to untreated weeds, A.th ([1]; 10 g/ha): 5%
- Fresh weight ratio with respect to untreated weeds, C.al ([2]; 5 g/ha): 17%
- Fresh weight ratio with respect to untreated weeds, C.al ([2]; 10 g/ha): 0%
- Fresh weight ratio with respect to untreated weeds, A.vi ([3]; 5 g/ha): 9%
- Fresh weight ratio with respect to untreated weeds, A.vi ([3]; 10 g/ha): 0%
- Fresh weight ratio with respect to untreated weeds, A.ar ([4]; 5 g/ha): 40%
- Fresh weight ratio with respect to untreated weeds, A.ar ([4]; 10 g/ha): 14%
- herbicidal activities in the presence of Compound (B), (C), (D) or (E) (weeds): not decreased

Compound: CC1(C)OC(c2ccco2)CN1C(=O)C(Cl)Cl (stereo not shown) [Compound (B)]
- Fresh weight ratio with respect to untreated plants (maize; 40 g/ha): 100%
- Fresh weight ratio with respect to untreated plants (maize; 80 g/ha): 100%
- phytotoxicities to maize sown at a shallow sowing depth caused by Compound (A1), (A2), (A3) or (A4): effect of the safener (maize): remarkably reduced
- Fresh weight ratio with respect to untreated weeds, A.th ([1]; 5 g/ha): 100%
- Fresh weight ratio with respect to untreated weeds, A.th ([1]; 10 g/ha): 100%
- Fresh weight ratio with respect to untreated weeds, C.al ([2]; 5 g/ha): 100%
- Fresh weight ratio with respect to untreated weeds, C.al ([2]; 10 g/ha): 100%
- Fresh weight ratio with respect to untreated weeds, A.vi ([3]; 5 g/ha): 100%
- Fresh weight ratio with respect to untreated weeds, A.vi ([3]; 10 g/ha): 100%
- Fresh weight ratio with respect to untreated weeds, A.ar ([4]; 5 g/ha): 100%
- Fresh weight ratio with respect to untreated weeds, A.ar ([4]; 10 g/ha): 100%

Compound: CC1(C)CN2C(=O)CCC2(C)N(C(=O)C(Cl)Cl)C1 (stereo not shown) [Compound (C)]
- Fresh weight ratio with respect to untreated plants (maize; 40 g/ha): 100%
- Fresh weight ratio with respect to untreated plants (maize; 80 g/ha): 100%
- phytotoxicities to maize sown at a shallow sowing depth caused by Compound (A1), (A2), (A3) or (A4): effect of the safener (maize): remarkably reduced
- Fresh weight ratio with respect to untreated weeds, A.th ([1]; 5 g/ha): 100%
- Fresh weight ratio with respect to untreated weeds, A.th ([1]; 10 g/ha): 100%
- Fresh weight ratio with respect to untreated weeds, C.al ([2]; 5 g/ha): 100%
- Fresh weight ratio with respect to untreated weeds, C.al ([2]; 10 g/ha): 100%
- Fresh weight ratio with respect to untreated weeds, A.vi ([3]; 5 g/ha): 100%
- Fresh weight ratio with respect to untreated weeds, A.vi ([3]; 10 g/ha): 100%
- Fresh weight ratio with respect to untreated weeds, A.ar ([4]; 5 g/ha): 100%
- Fresh weight ratio with respect to untreated weeds, A.ar ([4]; 10 g/ha): 100%

Compound: O=C(C(Cl)Cl)N1CCOC12CCCCC2 [Compound (D)]
- Fresh weight ratio with respect to untreated plants (maize; 40 g/ha): 100%
- Fresh weight ratio with respect to untreated plants (maize; 80 g/ha): 100%
- phytotoxicities to maize sown at a shallow sowing depth caused by Compound (A1), (A2), (A3) or (A4): effect of the safener (maize): remarkably reduced
- Fresh weight ratio with respect to untreated weeds, A.th ([1]; 5 g/ha): 100%
- Fresh weight ratio with respect to untreated weeds, A.th ([1]; 10 g/ha): 100%
- Fresh weight ratio with respect to untreated weeds, C.al ([2]; 5 g/ha): 100%
- Fresh weight ratio with respect to untreated weeds, C.al ([2]; 10 g/ha): 100%
- Fresh weight ratio with respect to untreated weeds, A.vi ([3]; 5 g/ha): 100%
- Fresh weight ratio with respect to untreated weeds, A.vi ([3]; 10 g/ha): 100%
- Fresh weight ratio with respect to untreated weeds, A.ar ([4]; 5 g/ha): 100%
- Fresh weight ratio with respect to untreated weeds, A.ar ([4]; 10 g/ha): 100%

Compound: CC1COc2ccccc2N1C(=O)C(Cl)Cl (stereo not shown) [Compound (E)]
- Fresh weight ratio with respect to untreated plants (maize; 40 g/ha): 100%
- Fresh weight ratio with respect to untreated plants (maize; 80 g/ha): 100%
- phytotoxicities to maize sown at a shallow sowing depth caused by Compound (A1), (A2), (A3) or (A4): effect of the safener (maize): remarkably reduced
- Fresh weight ratio with respect to untreated weeds, A.th ([1]; 5 g/ha): 100%
- Fresh weight ratio with respect to untreated weeds, A.th ([1]; 10 g/ha): 100%
- Fresh weight ratio with respect to untreated weeds, C.al ([2]; 5 g/ha): 100%
- Fresh weight ratio with respect to untreated weeds, C.al ([2]; 10 g/ha): 100%
- Fresh weight ratio with respect to untreated weeds, A.vi ([3]; 5 g/ha): 100%
- Fresh weight ratio with respect to untreated weeds, A.vi ([3]; 10 g/ha): 100%
- Fresh weight ratio with respect to untreated weeds, A.ar ([4]; 5 g/ha): 100%
- Fresh weight ratio with respect to untreated weeds, A.ar ([4]; 10 g/ha): 100%
